From ChEMBL document CHEMBL1148912, “New diterpenoids from the marine mangrove Bruguiera gymnorrhiza” (J Nat Prod, 2004)
≈ marks a conversion by molar mass, not a printed value.

Tests used:
[1] = Growth inhibition of mouse L929 cells; format: cell-based
K562 = test: Growth inhibition of human K562 cells; format: functional
HeLa = test: Cytotoxicity against human HeLa cells; format: functional

| SMILES | GI50 (K562) | GI50 [1] | CC50 (HeLa) |
| --- | --- | --- | --- |
| C[C@@]12CCC[C@@](C)(C(=O)O)[C@H]1CC[C@@]13C[C@H](CO)[C@@H](CC[C@H]12)C3 | 32.8 µg/mL (≈ 102 µM) | 42.4 µg/mL (≈ 132 µM) | 43 µg/mL (≈ 134 µM) |
| COC(=O)[C@]1(C)CCC[C@@]2(C)[C@@H]3CC[C@H]4C[C@]3(CC[C@@H]21)C[C@]4(O)CO | 27.7 µg/mL (≈ 79 µM) | 39.5 µg/mL (≈ 113 µM) | 40.5 µg/mL (≈ 116 µM) |
| C=C1C[C@]23CC[C@@H]4[C@](C)(CO)CCC[C@@]4(C)[C@@H]2CC[C@@]1(O)C3 | 50 µg/mL (≈ 164 µM) | 50 µg/mL (≈ 164 µM) | 50 µg/mL (≈ 164 µM) |
| C[C@@]12CCC[C@@](C)(C=O)[C@H]1CC[C@@]13C[C@@H](CC[C@H]12)[C@@](O)(CO)C3 | 50 µg/mL (≈ 156 µM) | 50 µg/mL (≈ 156 µM) | 50 µg/mL (≈ 156 µM) |
| C=C1C[C@]23CC[C@H]4[C@@](C)(CCC[C@@]4(C)C=O)[C@@H]2CC[C@@]1(O)C3 | 10.5 µg/mL (≈ 34.7 µM) | 11.5 µg/mL (≈ 38 µM) | 42.3 µg/mL (≈ 140 µM) |

Continued by falling GI50 (K562), values first:

| GI50 (K562) | SMILES | GI50 [1] | CC50 (HeLa) |
| --- | --- | --- | --- |
| 50 µg/mL (≈ 157 µM) | C[C@@]12CCC[C@@](C)(C=O)[C@H]1CC[C@@]13CC(=O)[C@](CO)(CC[C@H]12)C3 | 45.4 µg/mL (≈ 143 µM) | 37.7 µg/mL (≈ 118 µM) |
| 29.2 µg/mL (≈ 82.3 µM) | C[C@@]12CCC[C@@](C)(C=O)[C@H]1CC[C@]13C[C@](O)(CC[C@H]12)[C@](O)(CCl)C3 | 50 µg/mL (≈ 141 µM) | 38.2 µg/mL (≈ 108 µM) |
| 26.7 µg/mL (≈ 76.6 µM) | COC(=O)[C@]1(C)CCC[C@@]2(C)C3=CC[C@H]4C[C@]3(CC[C@H]12)C[C@]4(O)CO | 41.9 µg/mL (≈ 120 µM) | 38.7 µg/mL (≈ 111 µM) |
| 13.6 µg/mL (≈ 44.4 µM) | C[C@@]1(CO)CCC[C@]2(C)[C@@H]1CC[C@@]13C[C@H](CO)[C@@H](CC[C@H]12)C3 | 12.8 µg/mL (≈ 41.8 µM) | 35.7 µg/mL (≈ 116 µM) |
| 6.8 µg/mL (≈ 23.6 µM) | C=C1C[C@@]23CC[C@@H]4[C@](C)(CO)CCC[C@@]4(C)[C@@H]2CC[C@H]1C3 | 18.2 µg/mL (≈ 63.1 µM) | 32.8 µg/mL (≈ 114 µM) |
| 0.01 µg/mL (≈ 0.0117 µM) | CC(=O)O[C@H]1C(=O)[C@@]2(C)[C@H]([C@H](OC(=O)c3ccccc3)[C@]3(O)C[C@H](OC(=O)[C@H](O)[C@@H](NC(=O)c4ccccc4)c4ccccc4)C(C)=C1C3(C)C)[C@]1(OC(C)=O)CO[C@@H]1C[C@@H]2O [PACLITAXEL] | 0.1 µg/mL (≈ 0.117 µM) | 0.01 µg/mL (≈ 0.0117 µM) |
